Measured values: ChEMBL document CHEMBL5046238, “Synthesis, biological evaluation, and in silico studies of potential activators of apoptosis and carbonic anhydrase inhibitors on isatin-5-sulfonamide scaffold” (Eur J Med Chem, 2022)
Activity calls are given as the source filed them. No cut-off for these calls is given here.

Experiments:
K562 = test: Antiproliferative activity against human K562 cells assessed as growth inhibition measured after 72 hrs by MTT assay; settings: K562, 72 h
Carbonic anhydrase 9 = Carbonic anhydrase 9 (Homo sapiens, UniProt Q16790); test: Inhibition of human CA9 preincubated for 15 mins by phenol red dye based stopped flow CO2 hydration assay
MCF7 [1] = test: Antiproliferative activity against human MCF7 cells assessed as growth inhibition measured after 72 hrs by MTT assay; settings: MCF7, 72 h
Carbonic anhydrase 12 = Carbonic anhydrase 12 (Homo sapiens, UniProt O43570); test: Inhibition of human CA12 preincubated for 15 mins by phenol red based stopped flow CO2 hydration assay
Carbonic anhydrase 12, sequence (O43570 whole entry): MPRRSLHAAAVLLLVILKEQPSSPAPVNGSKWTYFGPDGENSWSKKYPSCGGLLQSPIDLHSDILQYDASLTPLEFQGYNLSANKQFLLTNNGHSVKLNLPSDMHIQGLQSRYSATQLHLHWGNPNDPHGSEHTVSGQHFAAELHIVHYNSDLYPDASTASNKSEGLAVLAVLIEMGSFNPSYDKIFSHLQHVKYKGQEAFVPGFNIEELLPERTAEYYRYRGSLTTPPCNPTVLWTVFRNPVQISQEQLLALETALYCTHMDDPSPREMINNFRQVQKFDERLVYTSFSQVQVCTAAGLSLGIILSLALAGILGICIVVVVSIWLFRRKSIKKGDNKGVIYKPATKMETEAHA

[2] = Antiproliferative activity against human K562/4 cells assessed as growth inhibition measured after 72 hrs by MTT assay; settings: K562/4, 72 h
HCT-116 [3] = test: Antiproliferative activity against human HCT-116p53KO subline assessed as growth inhibition measured after 72 hrs by MTT assay; settings: HCT-116, 72 h
MCF7 [4] = test: Antiproliferative activity against human MCF7 cells assessed as growth inhibition under hypoxia conditions measured after 72 hrs by MTT assay; settings: MCF7, 72 h
T47D [5] = test: Antiproliferative activity against human T47D cells assessed as growth inhibition under hypoxia conditions measured after 72 hrs by MTT assay
[6] = Cytotoxicity against human MCF-10A assessed as cell viability under normoxia conditions measured after 72 hrs by MTT assay; format: toxicity, cell-based; settings: MCF-10A cells
T47D [7] = test: Antiproliferative activity against human T47D cells assessed as growth inhibition under normoxia conditions measured after 72 hrs by MTT assay
MDA-MB-231 [8] = test: Antiproliferative activity against human MDA-MB-231 cells assessed as growth inhibition under hypoxia conditions measured after 72 hrs by MTT assay; settings: MDA-MB-231, 72 h
HCT-116 [9] = test: cells; settings: Homo sapiens, HCT-116, 72 h
Description: Antiproliferative activity against human HCT-116 assessed as growth inhibition measured after 72 hrs by MTT assay

MDA-MB-231 [10] = test: Antiproliferative activity against human MDA-MB-231 cells assessed as growth inhibition under normoxia conditions measured after 72 hrs by MTT assay; settings: MDA-MB-231, 72 h
[11] = Cytotoxicity against human MCF-10A assessed as cell viability under hypoxia conditions measured after 72 hrs by MTT assay; format: toxicity, cell-based; settings: MCF-10A cells
MCF7 [12] = test: Induction of apoptosis in human MCF7 cells assessed as PARP cleavage upto 5 uM measured after 48 hrs by immunoblotting analysis; format: functional, cell-based; settings: dose microM <=5, time 48.0 hrs
MCF7 [13] = test: Induction of apoptosis in human MCF7 cells assessed as NFkappaB activity upto 5 uM measured after 48 hrs by immunoblotting analysis; format: functional, cell-based; settings: dose microM <=5, time 48.0 hrs
MCF7 [14] = test: Induction of apoptosis in human MCF7 cells assessed as decrease in ERalpha protein expression upto 5 uM measured after 48 hrs by immunoblotting analysis; format: functional, cell-based; settings: dose microM <=5, time 48.0 hrs
MCF7 [15] = test: Induction of apoptosis in human MCF7 cells assessed as decrease in Bcl2 expression upto 5 uM measured after 48 hrs by immunoblotting analysis; format: functional, cell-based; settings: dose microM <=5, time 48.0 hrs
MCF7 [16] = test: Induction of apoptosis in human MCF7 cells assessed as […] in BAD protein expression upto 5 uM measured after 48 hrs by immunoblotting analysis; format: functional, cell-based; settings: dose microM <=5, time 48.0 hrs

IC50 (K562) | Ki (Carbonic anhydrase 9) | IC50 (MCF7 [1]) | Ki (Carbonic anhydrase 12) | IC50 (HCT-116 [3]) | IC50 (MCF7 [4]) | IC50 (T47D [5]) | IC50 (T47D [7]) | IC50 (MDA-MB-231 [8]) | IC50 (HCT-116 [9]) | IC50 (MDA-MB-231 [10]) | SMILES | IC50 [2] | IC50 at 72 h [6] | IC50 at 72 h [11] | Activity (MCF7 [12]) | Activity (MCF7 [13]) | Activity (MCF7 [14]) | Activity (MCF7 [15]) | Activity (MCF7 [16])
15.5 µM | 2.53 µM | 26.8 µM | > 10 µM |  |  |  |  |  |  |  | NS(=O)(=O)c1ccc2c(c1)C(=O)C(=O)N2Cc1cccc(F)c1 | 50 µM |  |  |  |  |  |  | 
8 µM | 0.195 µM | 10.2 µM |  |  |  |  |  |  |  |  | NS(=O)(=O)c1ccc2c(c1)C(=O)C(=O)N2Cc1c(F)c(F)c(F)c(F)c1F | > 50 µM |  |  |  |  |  |  | 
8 µM | 0.276 µM | 4.4 µM |  | 15 µM | 3.9 µM | 11.1 µM | 9.4 µM | 9.4 µM | 17 µM | 7.4 µM | Cc1ccc(CN2C(=O)C(=O)c3cc(S(N)(=O)=O)ccc32)cc1C | 17 µM | 6.2 µM | 6 µM |  |  |  |  | 
> 50 µM | 2.04 µM | > 50 µM |  |  |  |  |  |  |  |  | NS(=O)(=O)c1ccc2c(c1)C(=O)C(=O)N2Cc1ccc([N+](=O)[O-])cc1 | > 50 µM |  |  |  |  |  |  | 
16 µM | 0.811 µM | 8.2 µM |  | 34 µM | 5.5 µM | 32.6 µM | 22.6 µM | 16.3 µM | 30 µM | 27.1 µM | NS(=O)(=O)c1ccc2c(c1)C(=O)C(=O)N2Cc1ccc(C(F)(F)F)cc1 | 50 µM |  |  |  |  |  |  | 
17.2 µM | 1.81 µM | 31.8 µM |  |  |  |  |  |  |  |  | NS(=O)(=O)c1ccc2c(c1)C(=O)C(=O)N2CCc1ccccc1 | 36 µM |  |  |  |  |  |  | 
14 µM | 0.26 µM | 6 µM |  | 30 µM | 4.9 µM | 42.5 µM | 18.4 µM | 19.1 µM | 23 µM | 22 µM | NS(=O)(=O)c1ccc2c(c1)C(=O)C(=O)N2Cc1ccc(Cl)cc1 | 50 µM | 6.9 µM | 6.2 µM |  |  |  |  | 
17 µM | 1.03 µM | 22.7 µM |  |  |  |  |  |  |  |  | NS(=O)(=O)c1ccc2c(c1)C(=O)C(=O)N2Cc1c(F)cccc1F | 40 µM |  |  |  |  |  |  | 
> 50 µM | 1.68 µM | > 50 µM |  |  |  |  |  |  |  |  | NS(=O)(=O)c1ccc2c(c1)C(=O)C(=O)N2Cc1ccncc1 | > 50 µM |  |  |  |  |  |  | 
8.8 µM | 0.163 µM | 7.8 µM |  | 20 µM | 5.6 µM | 21.8 µM | 12 µM | 8.4 µM | 17.5 µM | 7 µM | NS(=O)(=O)c1ccc2c(c1)C(=O)C(=O)N2Cc1ccc(Cl)cc1Cl | 18 µM |  |  |  |  |  |  | 
12.5 µM |  | 9.2 µM |  | 45 µM | 13.1 µM | > 50 µM | > 50 µM | 25.7 µM | 18 µM | 26.6 µM | NS(=O)(=O)c1ccc2c(c1)CCC2NC(=O)c1c(F)c(F)c(F)c(F)c1F (stereo not drawn) | 18 µM | > 50 µM | > 50 µM |  |  |  |  | 
> 50 µM | 1.46 µM | > 50 µM |  |  |  |  |  |  |  |  | NS(=O)(=O)c1ccc2c(c1)C(=O)C(=O)N2 | > 50 µM |  |  |  |  |  |  | 
11 µM | 0.292 µM | 13.3 µM |  |  |  |  |  |  |  |  | NS(=O)(=O)c1ccc2c(c1)C(=O)C(=O)N2Cc1ccc(F)cc1Cl | 32 µM |  |  |  |  |  |  | 
 |  | 0.31 µM |  | 0.8 µM | 0.37 µM | 0.18 µM | 0.16 µM | 0.25 µM | 0.3 µM | 0.33 µM | COc1cccc2c1C(=O)c1c(O)c3c(c(O)c1C2=O)C[C@@](O)(C(=O)CO)C[C@@H]3O[C@H]1C[C@H](N)[C@H](O)[C@H](C)O1 [DOXORUBICIN] |  | 0.047 µM | 0.051 µM |  |  |  |  | 
18 µM | 1.11 µM | 8.7 µM |  |  |  |  |  |  |  |  | NS(=O)(=O)c1ccc2c(c1)C(=O)C(=O)N2Cc1ccccc1F | 20 µM |  |  |  |  |  |  | 
9.8 µM | 0.244 µM | 8.4 µM | > 10 µM | 30 µM | 5.9 µM | > 50 µM | 6.3 µM | 17.6 µM | 17.7 µM | 14.2 µM | NS(=O)(=O)c1ccc2c(c1)C(=O)C(=O)N2Cc1cccc(C(F)(F)F)c1 | 19.8 µM |  |  |  |  |  |  | 
35 µM | 1.32 µM | 26.5 µM |  |  |  |  |  |  |  |  | NS(=O)(=O)c1ccc2c(c1)C(=O)C(=O)N2Cc1cc(F)cc(F)c1 | 37 µM |  |  |  |  |  |  | 
17 µM | 1.46 µM | 6.1 µM |  | 31 µM | 5.9 µM | > 50 µM | 17.1 µM | 18.5 µM | 32 µM | 21.8 µM | NS(=O)(=O)c1ccc2c(c1)C(=O)C(=O)N2Cc1ccc(Cl)c(Cl)c1 | > 50 µM | 6.6 µM | 7.3 µM |  |  |  |  | 
20 µM |  | > 50 µM |  | > 50 µM | > 50 µM |  |  | > 50 µM | 38 µM | > 50 µM | O=C1C(=O)N(Cc2ccc(Cl)c(Cl)c2)c2ccccc21 | 48 µM |  |  | Active | inactive | inactive | Active | Active
18 µM | 1.53 µM | 20.1 µM |  |  |  |  |  |  |  |  | NS(=O)(=O)c1ccc2c(c1)C(=O)C(=O)N2Cc1ccccc1 | > 50 µM |  |  |  |  |  |  | 
4.5 µM | 1.77 µM | 2.6 µM | > 10 µM | 15 µM | 3.2 µM | 20.3 µM | 6.3 µM | 10.8 µM | 14.5 µM | 6.9 µM | NS(=O)(=O)c1ccc2c(c1)C(=O)C(=O)N2Cc1ccc(SC(F)(F)F)cc1 | 6.5 µM | 6.4 µM | 8.6 µM | Active | Active | Dose-Dependent Effect | Active | inactive
14.5 µM | 0.204 µM | 12.8 µM |  |  |  |  |  |  |  |  | NS(=O)(=O)c1ccc2c(c1)C(=O)C(=O)N2Cc1c(F)cccc1Cl | 18 µM |  |  |  |  |  |  | 
9 µM | 0.211 µM | 12 µM | > 10 µM |  |  |  |  |  |  |  | NS(=O)(=O)c1ccc2c(c1)C(=O)C(=O)N2Cc1cc(C(F)(F)F)ccc1F | 19.8 µM |  |  |  |  |  |  | 
36 µM | 0.24 µM | 17.3 µM |  |  |  |  |  |  |  |  | NS(=O)(=O)c1ccc2c(c1)C(=O)C(=O)N2Cc1ccc(F)cc1 | > 50 µM |  |  |  |  |  |  | 
9 µM | 1.03 µM | 5.1 µM |  | 30 µM | 4.6 µM | > 50 µM | 20.7 µM | 40.8 µM | 27 µM | 28.4 µM | COc1ccc(CN2C(=O)C(=O)c3cc(S(N)(=O)=O)ccc32)cc1 | 43 µM | 4 µM | 3.2 µM |  |  |  |  | 
